Assays:
[1] = Oral administration of garcinol, HCA and combination: body weight, food and fluid consumption in SKH-1 mice; type: in vivo; settings: 0.05% GAR, 1% HCA, Mean ± SE
TPA-induced ear edema = TPA-induced ear edema in female CF-1 mice; type: in vivo; settings: 5 hours; for Weight per punch: mean ± SE
Protocol: The role of garcinol as a chemopreventive agent has been confirmed in an experiment in which CF-1 mice were treated topically with the inflammation and tumor promoting agent, TPA. [table]

[2] = tested on: azoxymethane (AOM)-induced formation of aberrant colonic crypts (AC); experiment: Azoxymethane (AOM)-induced formation of aberrant colonic crypts in CF-1 mice; type: in vivo; settings: 10 week oral, 0.05% GAR, 1% HCA
[3] = Body weight and accumulation of fat in abdomen in CF-1 mice, 10 week oral administration; type: in vivo; settings: 0.05% GAR, 1% HCA; for Body weight: AOM
[4] = oral, before the feeding period; versus untreated controls; cited from earlier work
ATP citrate lyase enzyme = settings: in vitro, purified enzyme; cited from earlier work
[5] = rats fed (−) HCA; cited from earlier work
ATP citrate lyase [6] = target: T1, ATP citrate lyase (Homo sapiens, UniProt P53396); settings: cited from earlier work
T1 construct: an in vitro study done on hepatic cells; endogenous in cells; host or cells: hepatic cells (species and cell type not specified)
T1 sequence (P53396 1-1101): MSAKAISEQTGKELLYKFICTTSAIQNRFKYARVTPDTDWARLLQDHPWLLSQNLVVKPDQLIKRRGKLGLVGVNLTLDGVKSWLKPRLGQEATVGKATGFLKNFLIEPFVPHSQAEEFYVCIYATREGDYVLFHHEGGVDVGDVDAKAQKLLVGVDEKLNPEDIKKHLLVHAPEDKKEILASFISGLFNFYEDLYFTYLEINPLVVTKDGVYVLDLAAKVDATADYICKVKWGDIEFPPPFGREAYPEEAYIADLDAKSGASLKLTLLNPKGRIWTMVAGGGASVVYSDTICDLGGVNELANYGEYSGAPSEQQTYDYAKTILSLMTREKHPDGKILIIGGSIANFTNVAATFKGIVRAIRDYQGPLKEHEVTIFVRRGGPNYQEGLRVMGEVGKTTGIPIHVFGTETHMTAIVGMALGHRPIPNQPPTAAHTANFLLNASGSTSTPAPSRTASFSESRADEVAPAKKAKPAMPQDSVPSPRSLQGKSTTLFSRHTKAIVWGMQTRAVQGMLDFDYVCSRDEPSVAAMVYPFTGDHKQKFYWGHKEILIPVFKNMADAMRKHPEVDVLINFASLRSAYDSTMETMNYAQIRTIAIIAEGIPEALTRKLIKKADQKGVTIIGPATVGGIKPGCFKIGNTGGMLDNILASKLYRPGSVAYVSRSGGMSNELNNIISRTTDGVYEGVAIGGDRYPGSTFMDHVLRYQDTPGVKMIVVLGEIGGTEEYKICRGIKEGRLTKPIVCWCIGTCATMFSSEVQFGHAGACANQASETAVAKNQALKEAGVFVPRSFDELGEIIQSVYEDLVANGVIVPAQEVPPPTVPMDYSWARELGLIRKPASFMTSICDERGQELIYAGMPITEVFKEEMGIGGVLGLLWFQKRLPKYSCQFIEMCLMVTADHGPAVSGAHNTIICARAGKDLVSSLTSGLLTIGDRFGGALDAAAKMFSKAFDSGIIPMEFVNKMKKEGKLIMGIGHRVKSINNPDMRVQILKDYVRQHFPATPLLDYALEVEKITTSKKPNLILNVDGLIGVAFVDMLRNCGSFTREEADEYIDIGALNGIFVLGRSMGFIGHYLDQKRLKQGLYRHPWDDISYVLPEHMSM

ATP citrate lyase [7] = target: T1, ATP citrate lyase; experiment: Inhibition of ATP citrate lyase in hepatic cells in vitro; type: cell-based; settings: extracellular versus cytosol
Text: In their U.S. Patent, the Inventors addressed an important issue regarding the bioavailability of the HCA compounds. The U.S. Pat. No. 5,783,603 patent described a manufacturing process leading to a unique structure for a potassium salt of HCA, which facilitated its transport across biological membranes, effectively delivering more HCA into the cytosol for the competitive inhibition of ATP citrate lyase. […] Therefore, a 10-fold excess amount of potassium HCA is needed outside of the target cell in order to achieve a concentration of 1/10 that amount in the cytosol. This finding of relatively poor bioavailability of HCA, was confirmed in pre-clinical experiments (14), and points out the need to further improve the bioavailability and efficacy of HCA.

[8] = TPA 1 nmol + GAR 0.1 umol topical on ear
[9] = TPA 1 nmol + GAR 0.5 umol topical on ear

Row | excess needed outside the target cell over cytosol concentration (ATP citrate lyase [7]) | Structure (SMILES) | Body weight ([1]; 5 weeks) | Body weight ([1]; 7 weeks) | Body weight ([1]; 10 weeks) | Percent Inhibition of ear edema (TPA-induced ear edema; [8]) | Weight per punch (TPA-induced ear edema; [8]) | Percent Inhibition of ear edema (TPA-induced ear edema; [9]) | Weight per punch (TPA-induced ear edema; [9]) | AC per colon [2] | AC per colon, percentage in parentheses (reduction versus control) [2] | parametrial fat [3] | retroperitoneal fat [3] | Body weight [3] | food intake [4] | hepatic synthesis of fatty acids and cholesterol [4] | inhibition of ATP citrate lyase enzyme (ATP citrate lyase enzyme) | weight loss and cumulative food intake [5] | concentration needed in the cytosol to effectively inhibit ATP citrate lyase (ATP citrate lyase [6]; cytosol) | extracellular concentration that could inhibit ATP citrate lyase (ATP citrate lyase [6]; hepatic cells, extracellular)
1 |  | C=C(C)[C@@H](CC=C(C)C)C[C@@]12C[C@@H](CC=C(C)C)C(C)(C)[C@@](CC=C(C)C)(C(=O)C(C(=O)c3ccc(O)c(O)c3)=C1O)C2=O [GAR, garcinol] | 32.8 ± 0.37 gm | 33.9 ± 0.14 gm | 36.4 ± 0.55 gm | 38.5% | 12.4 ± 0.81 mg | 77.5% | 9.25 ± 0.66 mg | 7.8 | 31.6% | 1.21 ± 0.18 gm | 0.85 ± 0.01 gm | 37.3 ± 1.07 gm |  |  |  |  |  | 
2 |  | O=C(O)CC(O)(C(=O)O)C(O)C(=O)O (stereo not drawn) [HCA, 1,2-dihydroxypropane-1,2,3-tricarboxylic acid] | 32.5 ± 0.42 gm | 34.5 ± 0.59 gm | 36.8 ± 0.33 gm |  |  |  |  | 7.9 | 30.7% | 1.24 ± 0.06 gm | 0.79 ± 0.04 gm | 37.9 ± 0.66 gm | consumed less food | significantly diminished | potent linear competitive inhibitor | weight loss with no decrease in cumulative food intake |  | 
3 | 10 fold | O=C([O-])CC(O)(C(=O)[O-])C(O)C(=O)[O-].[K+].[K+].[K+] (stereo not drawn) [potassium HCA] |  |  |  |  |  |  |  |  |  |  |  |  |  |  |  |  | 0.5 mM | 5 mM
